The source of these data is patent publication US5084469A, “New substituted benzothiazolinones” (Adir et Compagnie, priority 1989, dated 1992).

This assay can be described thus: Analgesic activity (Siegmund test, phenyl-p-benzoquinone writhing). As to conditions: Mus musculus; oral, mice, 1 hour before i.p. phenyl-p-benzoquinone; writhing counted 5th to 10th minute; read-out: ED50 (dose producing a 50% decrease in the number of writhing movements). The format is in vivo. Here is the method:
The activity against pain was investigated in mice (20-25 g) according to a protocol derived from the technique described by SIEGMUND (SIEGMUND E.A., R.A., CADMUS & GOLU, J. Pharm. Exp. Ther. 119, […], 1954). The mice, randomized in batches of 12 animals, received the treatment orally (excipient for the controls) 1 hour before the intraperitoneal injection of a 0.02% aqueousalcoholic solution of phenyl-p-benzoquinone (Sigma). The writhing movements are counted between the 5th and 10th minute after injection.
The percentage activity obtained was evaluated for each dose (% decrease in the number of writhing movements in the treated animals relative to the controls). An ED50, the dose producing a 50% activity, was determined for each product.
A general note: An intraperitoneal irritant provokes the stretching counted in writhing tests.

SMILES strings stand for the structures.

Consider `O=c1[nH]c2ccc(Cc3ccccc3)cc2s1` [Example 1, 6-Benzylbenzothiazolinone], for which the ED50 is approximately 2 mg/kg.

For orientation: ED50 means the dose that gives a 50% effect, or the effect in half of the subjects.
